Experimental data as given in US12485132B2, “GPX4 inhibitors and senolytic compounds and uses thereof” (Rubedo Life Sciences, Inc., priority 2023, dated 2025).

Target: T1, GPX4 (Homo sapiens, UniProt P36969)
T1 sequence (P36969 1-197): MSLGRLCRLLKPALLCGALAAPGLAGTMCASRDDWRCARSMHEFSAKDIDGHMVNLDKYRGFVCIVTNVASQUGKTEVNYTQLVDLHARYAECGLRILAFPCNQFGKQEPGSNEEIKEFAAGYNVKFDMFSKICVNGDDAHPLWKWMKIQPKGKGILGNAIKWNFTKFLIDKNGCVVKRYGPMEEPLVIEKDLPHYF
Assay: Competitive binding to GPX4 in A549 cells with biotinylated analog, streptavidin pull-down
Type: cell-based
Parameters: host or cells: A549
Conditions: 2 μM for 2 hours before 2 μM compound 21 for 5 hours
Experimental: Binding of compounds 32 and 69 to the target protein GPX4 in cultured cells can be assessed by the use of biotinylated analogs such as compound 21 that retain their cellular activities. Cells or tissue simultaneously or sequentially exposed to compounds 32 and 69 and biotinylated analog 21 can be analyzed for exogenous biotinylated proteins and thereby enables the identification of cellular targets of compounds 32 and 69. The A549 cancer cell line (ATCC) was exposed to 2 μM of compounds 32 and 69 for 2 hours followed by the addition of 2 μM of compound 21 for 5 hours. Cells were collected and lysed by IGEPAL CA-630 and sodium dodecyl sulfate (SDS) in the presence of a protease inhibitor cocktail (4693132001, Roche). The soluble protein fraction was isolated and incubated with Streptavidin Mag Sepharose (28-9857-38, Cytiva) at 4° C. for 16 hours. The streptavidin-unbound fraction was collected allowing for the quantification of the proportion of GPX4 depleted by the biotinylated compound 21 relative to samples not treated with Streptavidin Mag Sepharose. Furthermore, biotinylated proteins were eluted from Streptavidin Mag Sepharose by head-denaturation in the presence of excess biotin (5 mM). […] Chemiluminescent following HRP substrate addition (34580, ThermoFisher) was detected by the ChemiDoc XRS+ System (Bio-Rad). […]

C#CC(F)(F)[C@]1(O)CC[C@H]2[C@@H]3CCC4=CC(=NNC(=O)NC5CC5)CCC4=C3[C@H](c3ccc(C4CC4)cc3)C[C@@]21C [Compound 32, N-cyclopropyl-2-((8S,11S,13S,14S,17S)-11-(4-cyclopropylphenyl)-17-(1,1-difluoroprop-2-yn-1-yl)-17-hydroxy-13-methyl-1,2,6,7,8,11,12,13,14,15,16,17-dodecahydro-3H-cyclopenta[a]phenanthren-3-ylidene)hydrazine-1-carboxamide]
effect of pre-treatment on compound 21 dependent depletion of GPX4 protein: reduces the compound 21 dependent depletion of GPX4 protein
